Measured values taken from patent US10253012B2, “Method and apparatus for preparation of lactide using lactide purification process” (priority 2015, dated 2019).

Experiment: Solubility of lactide in different solvents
Assay type: physicochemical

## CC1OC(=O)C(C)OC1=O (centres unmarked) [lactide]
Ethanol as first solvent, temperature maintained at 20 °C
  solubility of lactide in ethanol: ≤ 10 wt %
Solvent γ-butyrolactone, no solid crystal formed in condenser at 5 °C
  solubility of lactide in γ-butyrolactone (in words): high solubility
